Source: US20250250265A1, “BENZOTHIAZOLE-PHENYLSULFONYL-PIPERIDINE ANALOGS AS ACTIVATORS OF NACYLPHOSPHATIDYLETHANOLAMINE HYDROLYZING PHOSPHOLIPASE D” (priority 2022, published 2025)
Where two headings read alike, the source gives them in different places. Marks after values point to notes of the source that are not given here.

Key:
[1] = target: T1, recombinant mouse NAPE-PLD (Mus musculus, UniProt Q8BH82); assay: In vitro fluorescence NAPE-PLD activity assay (HTS/CRC) with recombinant mouse NAPE-PLD and PED-A1; assay type: biochemical; conditions: for Emax (95% Cl): Table 4, maximal efficacy as fold increase in NAPE-PLD activity versus vehicle only; for AC50 (nM) / Max % bA (%) / AC50: Table 1; for AC50 (nM) / AC50: concentration for 50% maximum activation from basal activity (no activator); for Max % bA (%): maximum induced activity compared to basal (100%) activity
T1 construct: hexahistidine (His6) (C); made in house; host or cells: E. coli
T1 sequence (Q8BH82 1-396): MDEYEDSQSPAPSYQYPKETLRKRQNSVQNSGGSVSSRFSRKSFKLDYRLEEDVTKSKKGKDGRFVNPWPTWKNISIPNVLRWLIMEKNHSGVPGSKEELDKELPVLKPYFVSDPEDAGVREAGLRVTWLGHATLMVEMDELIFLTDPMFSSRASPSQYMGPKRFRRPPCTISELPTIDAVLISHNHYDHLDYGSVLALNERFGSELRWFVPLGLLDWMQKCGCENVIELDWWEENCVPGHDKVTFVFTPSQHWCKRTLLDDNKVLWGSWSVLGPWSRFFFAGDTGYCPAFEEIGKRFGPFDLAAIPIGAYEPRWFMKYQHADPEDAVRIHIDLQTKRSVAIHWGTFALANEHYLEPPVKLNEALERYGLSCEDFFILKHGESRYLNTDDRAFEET
Protocol: Using the fluorogenic NAPE substrate, PED-A1, and recombinant mouse NAPE-PLD (rNAPE-PLD), an in vitro high-throughput (HTS) assay was conducted to screen ˜40,000 compounds for their ability to modulate NAPE-PLD activity. The HTS assay enabled the detection of both NAPE-PLD activators and inhibitors. […] Initial structure-activity response studies with the top hits identified benzothiazole phenylsulfonyl-piperidine carboxamide analogs (BT-PSP analogs) as lead compounds for NAPE-PLD activators (Table 1). The lead BT-PSP analog identified, VU534, induces 50% of its activation effect on NAPE-PLD at 270 nM (AC50 270 nM), and induces a maximal effect of 195% of basal NAPE-PLD activity (Table 1).
In vitro fluorescence NAPE-PLD activity assays using recombinant NAPE-PLD and either PED-A1 or flame-NAPE as fluorogenic substrate were performed as previously described except with small modifications as noted below. See Aggarwal et al., J. Biol. Chem. 295(21): 7289-7300 (2020); Zarrow et al., J. Lipid Res. 63(1): 100156 (2022).
For the HTS assays, test compounds were incubated with recombinant enzyme for 1 h prior to adding PED-A1 (final 0.4 μM) mixed with N-palmitoyl-dioleoyl-PE (final 3.6 μM) to adjust for the high sensitivity of the Panoptic instrument (WaveFront Biosciences). Assays used black-wall, clear-bottom, non-sterile, and non-treated 384-well plates (Greiner Bio-One 781906). The assay was read in kinetic fluorescence mode on the Panoptic instrument for 4 min and the slope of the signal from 30-100 s was used for analysis. A total of 39,328 compounds from the Vanderbilt Discovery Collection were tested, each at 10 μM. The tested compounds were chosen to represent a structurally diverse selection from the full library. Each 384-well plate included 320 test compound wells and 64 control wells. Unlike previous pilot screening assays, bithionol (10 μM final) was used in place of lithocholic acid (100 μM final) as the inhibitor control. Before performing high-throughput screening, a checkerboard assay was performed to validate the assay parameters. This yielded a Z′ score of 0.676. Z′ scores were also calculated for each plate during screening, and plates with scores <0.5 were re-run. The average Z′ across all screening plates was 0.52, and the total hit rate was 3.6%. B-scores were calculated from the initial slopes across each plate using WaveGuide software (WaveFront Biosiences). Modulator hits were defined as compounds with absolute B-scores of 3 or higher. The number of compounds in various B-score ranges were as follows: […], 12 compounds; −10 to −5, 221 compounds; −5 to −3, 770 compounds; −3 to 3, 37924 compounds; 3 to 4, 314 compounds; 4 to 6, 70 compounds; 6 to 10, 15 compounds. Activator hits with B-scores of >3 were selected for the replication assay and a selection of analogs of the activators.
Concentration response curve (CRC) experiments used the same assay conditions as the HTS assay, except that graded concentrations of each test compound were used, with total amount of vehicle (DMSO) kept constant. CRC experiments with purified recombinant mouse NAPE-PLD were performed on two separate days, with values from each day normalized to vehicle only controls on same plate, and then all normalized values from both days averaged together. CRC experiments with human NAPE-PLD represent value from only a single day, due to limited amounts of this recombinant enzyme.

[2] = target: T2, Fatty Acid Amide Hydrolase (FAAH) (Homo sapiens, UniProt O00519); assay: FAAH activity assay (Cayman Chemicals); assay type: biochemical; conditions: 33 μM compound, compared to vehicle (0%)
T2 construct: purchased Cayman Chemicals
T2 sequence (O00519 1-579): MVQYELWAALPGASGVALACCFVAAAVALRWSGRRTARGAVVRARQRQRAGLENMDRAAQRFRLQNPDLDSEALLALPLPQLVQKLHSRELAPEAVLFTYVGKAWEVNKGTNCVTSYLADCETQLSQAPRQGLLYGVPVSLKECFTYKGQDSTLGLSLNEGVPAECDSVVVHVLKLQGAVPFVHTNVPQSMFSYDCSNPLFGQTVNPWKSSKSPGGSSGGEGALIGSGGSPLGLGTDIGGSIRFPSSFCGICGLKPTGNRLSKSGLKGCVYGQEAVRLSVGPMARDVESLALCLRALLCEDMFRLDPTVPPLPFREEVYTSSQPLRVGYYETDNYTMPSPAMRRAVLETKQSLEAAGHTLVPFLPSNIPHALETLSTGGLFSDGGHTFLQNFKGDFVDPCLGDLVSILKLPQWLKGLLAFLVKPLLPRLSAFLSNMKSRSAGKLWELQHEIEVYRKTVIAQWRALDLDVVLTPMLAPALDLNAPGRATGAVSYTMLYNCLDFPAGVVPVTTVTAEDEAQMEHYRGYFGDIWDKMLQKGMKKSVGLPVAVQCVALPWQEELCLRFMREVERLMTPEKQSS
Protocol: (§1) Concentration response curves were plotted for VU534 for the enzymes fatty acid amide hydrolase (FAAH) and soluble epoxide hydrolase (sEH).
(§2) The fluorescence interference assay was performed using the same method as the HTS assay, but with BODIPY-FL C5 (Thermo Fisher Scientific) used in place of PED-A1. sEH and FAAH activity assays were performed according to the manufacturer's specifications (Cayman Chemicals).

[3] = target: T3, soluble epoxide hydrolase (sEH) (Homo sapiens, UniProt P34913); assay: sEH activity assay (Cayman Chemicals); assay type: biochemical; conditions: 33 μM compound, compared to vehicle (0%)
T3 construct: purchased Cayman Chemicals
T3 sequence (P34913 1-555): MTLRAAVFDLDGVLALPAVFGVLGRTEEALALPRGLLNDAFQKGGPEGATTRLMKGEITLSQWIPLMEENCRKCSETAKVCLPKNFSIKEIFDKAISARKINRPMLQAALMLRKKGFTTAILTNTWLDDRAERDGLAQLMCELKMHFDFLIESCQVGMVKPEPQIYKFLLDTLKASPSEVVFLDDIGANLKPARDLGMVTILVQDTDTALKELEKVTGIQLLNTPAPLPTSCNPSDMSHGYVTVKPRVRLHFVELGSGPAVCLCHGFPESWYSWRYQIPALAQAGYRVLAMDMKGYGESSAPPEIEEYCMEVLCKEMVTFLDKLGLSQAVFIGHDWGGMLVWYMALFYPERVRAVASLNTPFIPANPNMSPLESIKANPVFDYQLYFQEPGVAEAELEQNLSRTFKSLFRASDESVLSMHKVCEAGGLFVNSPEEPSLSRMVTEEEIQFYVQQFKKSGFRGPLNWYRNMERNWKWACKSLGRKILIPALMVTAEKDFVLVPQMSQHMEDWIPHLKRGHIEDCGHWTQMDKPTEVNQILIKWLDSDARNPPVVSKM
Protocol: as §1, §2

[4] = tested on: RAW264.7 mouse macrophages; assay: Cytotoxicity (MTT) in RAW264.7 macrophages; assay type: cell-based; conditions: Table 2; Mϕ, 33 μM compound
Protocol: Cytotoxicity was measured using MTT as previously described except that the studies used 96-well plates with 100 μL of 0.3 mg/mL MTT solution was added after 24 h of treatment and then replaced after 3 h with 0.1 M HCl in isopropanol. See Aggarwal et al., J. Biol. Chem. 295(21): 7289-7300 (2020). Viability was expressed as percent absorbance at 560 nm relative to vehicle controls.

[5] = Table 3, read-out: In vitro EC50
[6] = Table 3, read-out: In vitro Emax (100% activity is baseline activity of vehicle only)
[7] = Table 2, maximal induced activity for recombinant NAPE-PLD compared to basal (100%), read-out: Emax (%)
[8] = Table 2, rNAPE-PLD activity assay, read-out: EC50
[9] = Table 2, rNAPE-PLD activity assay

Row | SMILES | EC50 [1, 5] [nM] | Emax [1, 6] [%] | Emax (95% Cl) [1] | Emax [1, 7] [%] | EC50 [1, 8] [nM] | inhibition at 33 µM [2] [%] | inhibition at 33 µM [3] [%] | 33 μM Mϕ % Viability [4] [%] | AC50 (nM) [1] | Max % bA (%) [1] [%] | EC50 (μM) [1, 9] | AC50 [1] [nM]
1 | COc1ccc2nc(NC(=O)C3CCN(S(=O)(=O)c4ccc(F)cc4)CC3)sc2c1 [VU484] | 2600 | 162 | 2.1 (2.0-2.2) fold | – | – | – | – | – | – | – | – | –
2 | Cc1cc(F)ccc1S(=O)(=O)N1CCC(C(=O)Nc2nc3c(C)cccc3s2)CC1 [MRJ-058A] | – | – | – | 150 | 2900 | 20 | 85 | 55 | – | – | – | –
3 | Cc1cccc2sc(NC(=O)C3CCN(S(=O)(=O)c4ccc(Cl)cc4)CC3)nc12 [VU542] | 1100 | 183 | 1.9 (1.9-2.0) fold | < 120 | – | – | – | – | Not active | <120 | Inactive | –
4 | Cc1cc(F)ccc1S(=O)(=O)N1CCC(C(=O)Nc2nc3ccccc3s2)CC1 [VU205] | – | – | <1.2 fold | – | – | – | – | – | – | – | – | –
5 | O=C(Nc1nc2ccccc2s1)C1CCN(S(=O)(=O)c2ccc(Cl)cc2)CC1 [VU541] | 3300 | 153 | – | – | – | – | – | – | – | – | – | –
6 | Cc1cccc2sc(NC(=O)C3CCN(S(=O)(=O)c4ccc(F)cc4)CC3)nc12 [VU231] | 1100 | 168 | 2.0^d fold | < 120 | – | – | – | – | Not active | <120 | Inactive | –
7 | O=C(Nc1nc2ccccc2s1)C1CCN(S(=O)(=O)c2ccc(F)cc2)CC1 [VU488] | 390 | 136 | 1.7 (1.6-1.8) fold | 135 | 390 | – | – | – | – | – | – | –
8 | COc1ccc(S(=O)(=O)N2CCC(C(=O)Nc3nc4c(C)cccc4s3)CC2)cc1 [VU605] | ~200 | ~119 | 2.1 (2.0-2.2) fold | < 120 | – | – | – | – | – | 170 | Inactive | 1040
9 | COc1ccc(S(=O)(=O)N2CCC(C(=O)Nc3nc4ccc(C)cc4s3)CC2)cc1 [VU601] | ~1000 | 171 | 1.8 (1.8-1.9) fold | – | – | – | – | – | – | – | – | –
10 | Cc1ccc(S(=O)(=O)N2CCC(C(=O)Nc3nc4ccc(Cl)cc4s3)CC2)cc1 [VU572] | – | ~349 | – | – | – | – | – | – | – | – | – | –
11 | Cc1ccc2nc(NC(=O)C3CCN(S(=O)(=O)c4ccc(Cl)cc4)CC3)sc2c1 [VU539] | 2400 | 167 | 1.7 (1.6-1.8) fold | 170 | 2380 | – | – | – | – | 170 | – | 2380
12 | COc1cccc2sc(NC(=O)C3CCN(S(=O)(=O)c4ccc(F)cc4)CC3)nc12 [VU485] | 29000 | 232 | 2.0 (1.8-4.0) fold | – | – | – | – | – | – | – | – | –
